Experimental data from patent US20230126893A1, “[(1,4,5-TRISUBSTITUTED-1H-PYRAZOL-3-YL)SULFANYL]ACETIC ACID DERIVATIVES, SALTS THEREOF, AND USE THEREOF AS ACTIVE HERBICIDAL INGREDIENTS” (BAYER AKTIENGESELLSCHAFT, priority 2020, published 2023).

Tests used:
Assay type in all cases: in vivo
Alopecurus myosuroides [1] = assay: Pre-emergence herbicidal effect against ALOMY; conditions: 1280 g/ha, visual score after 3 weeks, 100% = plants have died, 0% = like control plants
Excerpt: (§1) 1. Pre-emergence herbicidal effect and crop plant compatibility Seeds of monocotyledonous and dicotyledonous weed plants and crop plants are laid out in sandy loam soil in wood-fibre pots and covered with soil. The compounds of the invention, formulated in the form of wettable powders (WP) or as emulsion concentrates (EC), are then applied to the surface of the covering soil as aqueous suspension or emulsion at a water application rate equating to 600 to 800 L/ha with addition of 0.2% wetting agent. After the treatment, the pots are placed in a greenhouse and kept under good growth conditions for the trial plants. The damage to the test plants is scored visually after a test period of 3 weeks by comparison with untreated controls (herbicidal activity in percent (%): 100% activity=the plants have died, 0% activity=like control plants). [table]

Digitaria sanguinalis = assay: Pre-emergence herbicidal effect against DIGSA; conditions: 1280 g/ha, visual score after 3 weeks, 100% = plants have died, 0% = like control plants
Excerpt: as §1

Poa annua [2] = assay: Pre-emergence herbicidal effect against POAAN; conditions: 1280 g/ha, visual score after 3 weeks, 100% = plants have died, 0% = like control plants
Excerpt: as §1

Setaria viridis [3] = assay: Pre-emergence herbicidal effect against SETVI; conditions: 1280 g/ha, visual score after 3 weeks, 100% = plants have died, 0% = like control plants
Excerpt: as §1

[4] = tested on: Tripleurospermum inodorum; assay: Pre-emergence herbicidal effect against MATIN; conditions: 1280 g/ha, visual score after 3 weeks, 100% = plants have died, 0% = like control plants
Excerpt: as §1

Stellaria media [5] = assay: Pre-emergence herbicidal effect against STEME; conditions: 1280 g/ha, visual score after 3 weeks, 100% = plants have died, 0% = like control plants
Excerpt: as §1

Veronica persica [6] = assay: Pre-emergence herbicidal effect against VERPE; conditions: 1280 g/ha, visual score after 3 weeks, 100% = plants have died, 0% = like control plants
Excerpt: as §1

Veronica persica [7] = assay: Post-emergence herbicidal effect against VERPE; conditions: 1280 g/ha, visual assessment about 3 weeks after treatment, 100% = plants have died, 0% = like control plants
Method: (§2) [table] 2. Post-emergence herbicidal effect and crop plant compatibility Seeds of monocotyledonous and dicotyledonous weed and crop plants are laid out in sandy loam soil in wood-fibre pots, covered with soil and cultivated in a greenhouse under good growth conditions. 2 to 3 weeks after sowing, the test plants are treated at the one-leaf stage. The compounds of the invention, formulated in the form of wettable powders (WP) or as emulsion concentrates (EC), are then sprayed onto the green parts of the plants as aqueous suspension or emulsion at a water application rate equating to 600 to 800 l/ha with addition of 0.2% wetting agent. After the test plants have been left to stand in the greenhouse under optimal growth conditions for about 3 weeks, the action of the preparations is assessed visually in comparison to untreated controls (herbicidal action in percent (%): 100% activity=the plants have died, 0% activity=like control plants).

Echinochloa crus-galli [8] = assay: Pre-emergence herbicidal effect against ECHCG; conditions: 1280 g/ha, visual score after 3 weeks, 100% = plants have died, 0% = like control plants
Excerpt: as §1

Lolium rigidum = assay: Pre-emergence herbicidal effect against LOLRI; conditions: 1280 g/ha, visual score after 3 weeks, 100% = plants have died, 0% = like control plants
Excerpt: as §1

Alopecurus myosuroides [9] = assay: Post-emergence herbicidal effect against ALOMY; conditions: 1280 g/ha, visual score after about 3 weeks, 100% = plants have died, 0% = like control plants
Method: as §2

Echinochloa crus-galli [10] = assay: Post-emergence herbicidal effect against ECHCG; conditions: 1280 g/ha, visual score after about 3 weeks, 100% = plants have died, 0% = like control plants
Method: as §2

Poa annua [11] = assay: Post-emergence herbicidal effect against POAAN; conditions: 1280 g/ha, visual assessment about 3 weeks after treatment, 100% = plants have died, 0% = like control plants
Method: as §2

Setaria viridis [12] = assay: Post-emergence herbicidal effect against SETVI; conditions: 1280 g/ha, visual assessment about 3 weeks after treatment, 100% = plants have died, 0% = like control plants
Method: as §2

[13] = tested on: Tripleurospermum inodorum; assay: Post-emergence herbicidal effect against MATIN; conditions: 1280 g/ha, visual assessment about 3 weeks after treatment, 100% = plants have died, 0% = like control plants
Method: as §2

Abutylon threophrasti = assay: Post-emergence herbicidal effect against ABUTH; conditions: 1280 g/ha, visual assessment about 3 weeks after treatment, 100% = plants have died, 0% = like control plants
Method: as §2

Bassia scoparia = assay: Post-emergence herbicidal effect against KCHSC; conditions: 1280 g/ha, visual assessment about 3 weeks after treatment, 100% = plants have died, 0% = like control plants
Method: as §2

Stellaria media [14] = assay: Post-emergence herbicidal effect against STEME; conditions: 1280 g/ha, visual assessment about 3 weeks after treatment, 100% = plants have died, 0% = like control plants
Method: as §2

CCOC(=O)CSc1nn(-c2ccccc2OC)c(-c2ccc(F)cc2)c1Br [Example I-023]
90%: Pre-emergence action against ALOMY (Alopecurus myosuroides [1]) | Pre-emergence action against SETVI (Setaria viridis [3]) | Post-emergence action against VERPE (Veronica persica [7])
100%: Pre-emergence action against DIGSA (Digitaria sanguinalis) | Pre-emergence action against POAAN (Poa annua [2]) | Pre-emergence action against MATIN [4] | Pre-emergence action against STEME (Stellaria media [5]) | Pre-emergence action against VERPE (Veronica persica [6])

CCOC(=O)CSc1nn(-c2ccc(Cl)cc2Cl)c(-c2ccc(F)c(F)c2)c1Br [Example I-026]
100%: Pre-emergence action against MATIN [4]
90%: Post-emergence action against VERPE (Veronica persica [7])

CCOC(=O)CSc1nn(-c2ccccc2F)c(-c2ccc(Cl)nc2)c1Br [II-012]
100%: Pre-emergence action against LOLRI (Lolium rigidum) | Pre-emergence action against POAAN (Poa annua [2]) | Pre-emergence action against MATIN [4] | Pre-emergence action against STEME (Stellaria media [5]) | Pre-emergence action against VERPE (Veronica persica [6]) | Post-emergence action against POAAN (Poa annua [11])
90%: Pre-emergence action against ALOMY (Alopecurus myosuroides [1]) | Pre-emergence action against ECHCG (Echinochloa crus-galli [8]) | Pre-emergence action against SETVI (Setaria viridis [3]) | Post-emergence action against ALOMY (Alopecurus myosuroides [9]) | Post-emergence action against ECHCG (Echinochloa crus-galli [10]) | Post-emergence action against SETVI (Setaria viridis [12]) | Post-emergence action against MATIN [13] | Post-emergence action against VERPE (Veronica persica [7])

CCOC(=O)CSc1nn(-c2ccccc2F)c(-c2ccc(Br)nc2)c1Br [II-015]
90%: Pre-emergence action against POAAN (Poa annua [2]) | Post-emergence action against POAAN (Poa annua [11]) | Post-emergence action against ABUTH (Abutylon threophrasti) | Post-emergence action against MATIN [13] | Post-emergence action against VERPE (Veronica persica [7])
100%: Pre-emergence action against MATIN [4] | Pre-emergence action against STEME (Stellaria media [5])

O=C(O)CSc1nn(-c2ccccc2F)c(-c2cccnc2)c1Br [II-017]
90%: Pre-emergence action against ALOMY (Alopecurus myosuroides [1]) | Pre-emergence action against ECHCG (Echinochloa crus-galli [8]) | Pre-emergence action against SETVI (Setaria viridis [3]) | Pre-emergence action against MATIN [4] | Pre-emergence action against STEME (Stellaria media [5]) | Post-emergence action against ALOMY (Alopecurus myosuroides [9]) | Post-emergence action against ECHCG (Echinochloa crus-galli [10]) | Post-emergence action against SETVI (Setaria viridis [12]) | Post-emergence action against MATIN [13] | Post-emergence action against VERPE (Veronica persica [7])
100%: Pre-emergence action against POAAN (Poa annua [2]) | Pre-emergence action against VERPE (Veronica persica [6]) | Post-emergence action against POAAN (Poa annua [11])

O=C(O)CSc1nn(-c2cccc(F)c2F)c(-c2cncnc2)c1Br [III-005]
90%: Pre-emergence action against ECHCG (Echinochloa crus-galli [8]) | Pre-emergence action against SETVI (Setaria viridis [3]) | Pre-emergence action against MATIN [4] | Pre-emergence action against STEME (Stellaria media [5]) | Pre-emergence action against VERPE (Veronica persica [6]) | Post-emergence action against ECHCG (Echinochloa crus-galli [10]) | Post-emergence action against ABUTH (Abutylon threophrasti) | Post-emergence action against KCHSC (Bassia scoparia) | Post-emergence action against MATIN [13] | Post-emergence action against VERPE (Veronica persica [7])
100%: Pre-emergence action against POAAN (Poa annua [2])

O=C(O)CSc1nn(-c2ccccc2F)c(-c2cnccn2)c1Br [VI-002]
90%: Pre-emergence action against ECHCG (Echinochloa crus-galli [8]) | Pre-emergence action against SETVI (Setaria viridis [3]) | Pre-emergence action against MATIN [4] | Pre-emergence action against STEME (Stellaria media [5]) | Post-emergence action against ALOMY (Alopecurus myosuroides [9]) | Post-emergence action against ECHCG (Echinochloa crus-galli [10]) | Post-emergence action against MATIN [13] | Post-emergence action against VERPE (Veronica persica [7])
100%: Pre-emergence action against POAAN (Poa annua [2])

CCOC(=O)CNC(=O)CSc1nn(-c2ccccc2F)c(-c2ccc(F)c(F)c2)c1Br [VII-003]
90%: Post-emergence action against MATIN [13] | Post-emergence action against STEME (Stellaria media [14]) | Post-emergence action against VERPE (Veronica persica [7])
100%: Pre-emergence action against ECHCG (Echinochloa crus-galli [8]) | Pre-emergence action against LOLRI (Lolium rigidum) | Pre-emergence action against POAAN (Poa annua [2]) | Pre-emergence action against SETVI (Setaria viridis [3]) | Pre-emergence action against MATIN [4] | Pre-emergence action against STEME (Stellaria media [5]) | Pre-emergence action against VERPE (Veronica persica [6]) | Post-emergence action against ALOMY (Alopecurus myosuroides [9]) | Post-emergence action against POAAN (Poa annua [11])

COC(=O)CNC(=O)CSc1nn(-c2ccccc2F)c(-c2ccc(F)c(F)c2)c1[N+](=O)[O-] [VII-004]
100%: Pre-emergence action against POAAN (Poa annua [2]) | Pre-emergence action against STEME (Stellaria media [5])

COC(=O)CNC(=O)CSc1nn(-c2ccccc2F)c(-c2ccccc2)c1Br [VII-005]
100%: Pre-emergence action against POAAN (Poa annua [2]) | Pre-emergence action against MATIN [4] | Pre-emergence action against STEME (Stellaria media [5]) | Pre-emergence action against VERPE (Veronica persica [6]) | Post-emergence action against ALOMY (Alopecurus myosuroides [9]) | Post-emergence action against POAAN (Poa annua [11]) | Post-emergence action against SETVI (Setaria viridis [12]) | Post-emergence action against ABUTH (Abutylon threophrasti) | Post-emergence action against KCHSC (Bassia scoparia) | Post-emergence action against MATIN [13] | Post-emergence action against VERPE (Veronica persica [7])
90%: Pre-emergence action against ALOMY (Alopecurus myosuroides [1]) | Pre-emergence action against ECHCG (Echinochloa crus-galli [8]) | Pre-emergence action against LOLRI (Lolium rigidum) | Pre-emergence action against SETVI (Setaria viridis [3]) | Post-emergence action against ECHCG (Echinochloa crus-galli [10]) | Post-emergence action against STEME (Stellaria media [14])

COC(=O)CCNC(=O)CSc1nn(-c2ccccc2F)c(-c2cccnc2)c1Br [VII-006]
90%: Pre-emergence action against ALOMY (Alopecurus myosuroides [1]) | Pre-emergence action against ECHCG (Echinochloa crus-galli [8]) | Pre-emergence action against SETVI (Setaria viridis [3]) | Pre-emergence action against MATIN [4] | Pre-emergence action against STEME (Stellaria media [5]) | Pre-emergence action against VERPE (Veronica persica [6]) | Post-emergence action against ALOMY (Alopecurus myosuroides [9]) | Post-emergence action against SETVI (Setaria viridis [12]) | Post-emergence action against KCHSC (Bassia scoparia) | Post-emergence action against MATIN [13] | Post-emergence action against VERPE (Veronica persica [7])
100%: Pre-emergence action against POAAN (Poa annua [2]) | Post-emergence action against POAAN (Poa annua [11])

COC(=O)CN(C)C(=O)CSc1nn(-c2ccccc2F)c(-c2cccnc2)c1Br [VII-008]
90%: Pre-emergence action against POAAN (Poa annua [2]) | Post-emergence action against ABUTH (Abutylon threophrasti) | Post-emergence action against KCHSC (Bassia scoparia) | Post-emergence action against VERPE (Veronica persica [7])

COC(=O)CN(C)C(=O)CSc1nn(-c2ccccc2F)c(-c2ccc(F)c(F)c2)c1Br [VII-011]
90%: Pre-emergence action against ALOMY (Alopecurus myosuroides [1]) | Pre-emergence action against MATIN [4] | Pre-emergence action against VERPE (Veronica persica [6]) | Post-emergence action against ALOMY (Alopecurus myosuroides [9]) | Post-emergence action against KCHSC (Bassia scoparia) | Post-emergence action against VERPE (Veronica persica [7])
100%: Pre-emergence action against POAAN (Poa annua [2])
